Data: article PMC4187893, “Biochemical and Antiparasitic Properties of Inhibitors of the Plasmodium falciparum Calcium-Dependent Protein Kinase PfCDPK1” (Antimicrobial Agents and Chemotherapy, 2014)
Where two headings read alike, the source gives them in different places.

Columns and labels:
[1] = design: method as in PMID 24689770; details: cited from earlier work
PvCDPK1 = PvCDPK1 (Plasmodium vivax, UniProt A5KBU9); test: Rh-ParM ADP sensor IC50 assay, PvCDPK1; details: for IC50: read-out: IC50 PvCDPK1, Rh-ParM, absence of MTIP, mean (SD)
PvCDPK1, sequence (A5KBU9 entry or part of it): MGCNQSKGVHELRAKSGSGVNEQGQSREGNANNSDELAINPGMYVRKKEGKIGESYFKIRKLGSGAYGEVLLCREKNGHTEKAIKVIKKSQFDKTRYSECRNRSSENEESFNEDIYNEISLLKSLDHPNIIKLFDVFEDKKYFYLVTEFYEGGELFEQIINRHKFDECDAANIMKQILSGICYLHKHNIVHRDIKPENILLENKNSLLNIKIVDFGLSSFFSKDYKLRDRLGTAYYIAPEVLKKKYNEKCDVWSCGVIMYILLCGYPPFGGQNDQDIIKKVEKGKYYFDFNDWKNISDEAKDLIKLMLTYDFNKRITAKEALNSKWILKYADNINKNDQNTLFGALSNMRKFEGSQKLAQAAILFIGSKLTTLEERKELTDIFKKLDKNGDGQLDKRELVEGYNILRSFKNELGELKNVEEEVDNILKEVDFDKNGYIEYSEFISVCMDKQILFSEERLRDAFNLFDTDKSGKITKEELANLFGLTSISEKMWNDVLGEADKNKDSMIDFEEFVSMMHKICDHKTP

PbCDPK1 = PbCDPK1 (Plasmodium berghei, UniProt A0A509AHB6); test: Rh-ParM ADP sensor IC50 assay, PbCDPK1; details: for IC50: read-out: IC50 PbCDPK1, Rh-ParM, absence of MTIP, mean (SD)
PbCDPK1, sequence (A0A509AHB6 whole entry): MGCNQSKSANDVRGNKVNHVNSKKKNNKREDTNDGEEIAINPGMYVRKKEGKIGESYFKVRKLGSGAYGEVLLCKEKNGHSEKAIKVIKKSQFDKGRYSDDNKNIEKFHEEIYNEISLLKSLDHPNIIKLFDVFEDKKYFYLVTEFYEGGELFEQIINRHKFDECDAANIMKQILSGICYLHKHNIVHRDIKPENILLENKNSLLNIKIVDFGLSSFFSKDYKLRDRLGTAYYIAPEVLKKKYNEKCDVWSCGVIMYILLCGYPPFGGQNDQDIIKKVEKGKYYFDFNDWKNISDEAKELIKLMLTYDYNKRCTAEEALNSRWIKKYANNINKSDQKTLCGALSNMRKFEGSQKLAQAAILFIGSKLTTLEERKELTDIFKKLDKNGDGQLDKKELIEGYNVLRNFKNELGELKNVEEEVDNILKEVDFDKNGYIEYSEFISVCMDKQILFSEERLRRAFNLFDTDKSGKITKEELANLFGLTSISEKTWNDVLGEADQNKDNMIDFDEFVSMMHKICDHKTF

PfCDPK1 [2] = target: T1, PfCDPK1 (Plasmodium falciparum, UniProt P62344); test: Kinase-Glo Plus ATP depletion assay; details: read-out: IC50 ATP depletion, ATP and MTIP at their respective Km values
T1 sequence (P62344 whole entry): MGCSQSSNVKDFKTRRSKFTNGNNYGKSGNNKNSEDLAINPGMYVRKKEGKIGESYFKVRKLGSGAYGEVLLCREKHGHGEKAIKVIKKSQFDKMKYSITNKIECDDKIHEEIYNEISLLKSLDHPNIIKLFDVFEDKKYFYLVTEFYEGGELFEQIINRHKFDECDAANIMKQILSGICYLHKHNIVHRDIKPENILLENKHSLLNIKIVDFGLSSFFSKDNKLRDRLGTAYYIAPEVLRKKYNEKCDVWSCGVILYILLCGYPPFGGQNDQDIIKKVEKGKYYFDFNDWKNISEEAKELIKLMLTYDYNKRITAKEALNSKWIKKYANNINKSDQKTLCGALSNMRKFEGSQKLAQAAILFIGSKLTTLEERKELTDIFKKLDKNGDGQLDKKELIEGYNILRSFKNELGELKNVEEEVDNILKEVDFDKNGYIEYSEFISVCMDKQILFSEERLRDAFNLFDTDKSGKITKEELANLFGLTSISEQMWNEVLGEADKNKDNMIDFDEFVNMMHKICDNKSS

PfCDPK1 [3] = target: T1, PfCDPK1; details: absence of MTIP; for IC50: mean (SD), n = 2
PfCDPK1 [4] = target: T1, PfCDPK1; test: Radiometric assay, incorporation of 33P into MTIP; details: for IC50 ratio (ATP depletion/radiometric assay): Kinase-Glo Plus IC50 / radiometric IC50; for IC50: read-out: IC50 Radiometric assay, ATP and MTIP at their respective Km values
P. falciparum 3D7 = test: FACS assay for parasite growth; details: Plasmodium falciparum, 3D7, 48 h, read-out: mean EC50, positive controls in parasite growth assay
[5] = read-out: IC50 With 30 μM ATP, 30 μM ATP, Rh-ParM ADP detection
[6] = read-out: IC50 With 1 mM ATP, 1 mM ATP, Rh-ParM ADP detection
[7] = read-out: IC50 PfCDPK1, Rh-ParM, ATP at Km

CN1CCC(Nc2ccc3ncc(-c4ccc(Nc5ncccc5F)cc4)n3n2)CC1 [Compound 3]
mlogD [1]: 3.2
IC50 (PvCDPK1; n = 3): < 10 nM

Fc1cccnc1Nc1ccc(-c2cnc3ccc(NC4CCC(N5CCCC5)CC4)nn23)cn1 (centres unmarked) [Compound 4]
mlogD [1]: 2.8
IC50 (PvCDPK1; n = 3): < 10 nM
IC50 (PbCDPK1; n = 3): 43 nM

Fc1cccnc1Nc1ccc(-c2cnc3ccc(NC4CCC(N5CCCC5)CC4)nn23)cc1 (centres unmarked) [Compound 5]
mlogD [1]: 3.3

CC(=O)Nc1cccc(-c2cnc3ccc(NCCc4ccccn4)nn23)c1 [Compound 10]
IC50 (PfCDPK1 [2]): 65 nM
IC50 ratio (IC50 with 1 mM ATP/IC50 with 30 μM ATP) (PfCDPK1 [3]; Rh-ParM): 27
IC50 (PfCDPK1 [3]; [5]): 64 nM
IC50 (PfCDPK1 [3]; [6]): 1700 nM
IC50 ratio (ATP depletion/radiometric assay) (PfCDPK1 [4]): 2.7
IC50 (PfCDPK1 [4]): 24 nM

CC(=O)Nc1cccc(-c2cnc3ccc(NCCc4cccnc4)nn23)c1 [Compound 11]
IC50 (PfCDPK1 [2]): 65 nM
IC50 ratio (IC50 with 1 mM ATP/IC50 with 30 μM ATP) (PfCDPK1 [3]; Rh-ParM): 28
IC50 (PfCDPK1 [3]; [5]): 49 nM
IC50 (PfCDPK1 [3]; [6]): 1380 nM
IC50 ratio (ATP depletion/radiometric assay) (PfCDPK1 [4]): 3.0
IC50 (PfCDPK1 [4]): 22 nM

COc1ccc2ncc(-c3ccc(C(=O)NCc4ccccc4)cc3)n2n1 [Compound 12]
IC50 (PfCDPK1 [2]): 200 nM
IC50 ratio (IC50 with 1 mM ATP/IC50 with 30 μM ATP) (PfCDPK1 [3]; Rh-ParM): 37
IC50 (PfCDPK1 [3]; [5]): 107 nM
IC50 (PfCDPK1 [3]; [6]): 3910 nM
IC50 ratio (ATP depletion/radiometric assay) (PfCDPK1 [4]): 5.9
IC50 (PfCDPK1 [4]): 34 nM

N#Cc1cccc(-c2cnn3ccc(NCCc4cccnc4)nc23)c1 [Compound 13]
IC50 ratio (IC50 with 1 mM ATP/IC50 with 30 μM ATP) (PfCDPK1 [3]; Rh-ParM): 17
IC50 (PfCDPK1 [3]; [5]): 212 nM
IC50 (PfCDPK1 [3]; [6]): 3580 nM

CC(=O)Nc1cccc(-c2cnn3ccc(NCCc4cccnc4)nc23)c1 [Compound 14]
IC50 (PfCDPK1 [2]): 52 nM
IC50 ratio (IC50 with 1 mM ATP/IC50 with 30 μM ATP) (PfCDPK1 [3]; Rh-ParM): 27
IC50 (PfCDPK1 [3]; [5]): 28 nM
IC50 (PfCDPK1 [3]; [6]): 745 nM
IC50 ratio (ATP depletion/radiometric assay) (PfCDPK1 [4]): 3.5
IC50 (PfCDPK1 [4]): 15 nM

NC(=O)c1ccc(-c2cnn3ccc(NCCc4cccnc4)nc23)cc1 [Compound 15]
IC50 (PfCDPK1 [2]): 32 nM
IC50 ratio (IC50 with 1 mM ATP/IC50 with 30 μM ATP) (PfCDPK1 [3]; Rh-ParM): 12
IC50 (PfCDPK1 [3]; [5]): 23 nM
IC50 (PfCDPK1 [3]; [6]): 270 nM
IC50 ratio (ATP depletion/radiometric assay) (PfCDPK1 [4]): 2.7
IC50 (PfCDPK1 [4]): 12 nM

O=C(NCc1ccc(N2CCCC2)cc1)c1ccc(-n2cnc3cccnc32)cc1 [Compound 16]
IC50 ratio (IC50 with 1 mM ATP/IC50 with 30 μM ATP) (PfCDPK1 [3]; Rh-ParM): 39
IC50 (PfCDPK1 [3]; [5]): 77 nM
IC50 (PfCDPK1 [3]; [6]): 2970 nM

O=C(NCc1cccc(N2CCCC2)c1)c1ccc(-n2cnc3cccnc32)cc1 [Compound 17]
IC50 ratio (IC50 with 1 mM ATP/IC50 with 30 μM ATP) (PfCDPK1 [3]; Rh-ParM): 27
IC50 (PfCDPK1 [3]; [5]): 51 nM
IC50 (PfCDPK1 [3]; [6]): 1380 nM

CC(C)Oc1ccc(CNC(=O)c2ccc(-n3cnc4cccnc43)cc2)cc1 [Compound 18]
IC50 ratio (IC50 with 1 mM ATP/IC50 with 30 μM ATP) (PfCDPK1 [3]; Rh-ParM): 53
IC50 (PfCDPK1 [3]; [5]): 86 nM
IC50 (PfCDPK1 [3]; [6]): 4530 nM

CN(C(=O)c1cc(COc2ccc(-n3cncn3)cc2)on1)C1CCCCC1 [Compound 19]
IC50 ratio (IC50 with 1 mM ATP/IC50 with 30 μM ATP) (PfCDPK1 [3]; Rh-ParM): 336
IC50 (PfCDPK1 [3]; [5]): 72 nM
IC50 (PfCDPK1 [3]; [6]): 24200 nM

CN(C(=O)c1cc(COc2ccc(-n3ccnc3)cc2)on1)C1CCCCC1 [Compound 20]
IC50 ratio (IC50 with 1 mM ATP/IC50 with 30 μM ATP) (PfCDPK1 [3]; Rh-ParM): 44
IC50 (PfCDPK1 [3]; [5]): 728 nM
IC50 (PfCDPK1 [3]; [6]): 31700 nM

Cc1c(C(=O)N(C)C2CCCCC2)noc1COc1ccc(-n2cncn2)cc1 [Compound 21]
IC50 ratio (IC50 with 1 mM ATP/IC50 with 30 μM ATP) (PfCDPK1 [3]; Rh-ParM): 41
IC50 (PfCDPK1 [3]; [5]): 143 nM
IC50 (PfCDPK1 [3]; [6]): 5930 nM

CCc1ccccc1NC(=O)CSc1nccn(-c2ccc(OC)cc2)c1=O [Compound 22]
IC50 ratio (IC50 with 1 mM ATP/IC50 with 30 μM ATP) (PfCDPK1 [3]; Rh-ParM): >3
IC50 (PfCDPK1 [3]; [5]): 34200 nM
IC50 (PfCDPK1 [3]; [6]): > 100000 nM

COc1ccc(NC(=O)CSc2nccn(-c3ccc(OC)cc3)c2=O)cc1 [Compound 23]
IC50 ratio (IC50 with 1 mM ATP/IC50 with 30 μM ATP) (PfCDPK1 [3]; Rh-ParM): >3
IC50 (PfCDPK1 [3]; [5]): 39800 nM
IC50 (PfCDPK1 [3]; [6]): > 100000 nM

COc1ccc(-n2ccnc(SCC(=O)Nc3ccc(C)cc3C)c2=O)cc1 [Compound 24]
IC50 ratio (IC50 with 1 mM ATP/IC50 with 30 μM ATP) (PfCDPK1 [3]; Rh-ParM): >3
IC50 (PfCDPK1 [3]; [5]): 31200 nM
IC50 (PfCDPK1 [3]; [6]): > 100000 nM

CC(C)CCNc1cc(-c2cnc3ccc(NC4CCN(C)CC4)nn23)ccn1 [Compound 27]
IC50 ratio PvCDPK1/PfCDPK1 (PvCDPK1): 0.5
IC50 (PvCDPK1; ATP at Km, n = 2): 68 nM
IC50 ratio PbCDPK1/PfCDPK1 (PbCDPK1): 3.5
IC50 (PbCDPK1; ATP at Km, n = 2): 479 nM
IC50 (PfCDPK1 [3]; [7]): 138 nM

CN1CCC(Nc2ccn3ncc(-c4cccc(NC(=O)c5ccccc5)c4)c3n2)CC1 [Compound 28]
IC50 ratio PvCDPK1/PfCDPK1 (PvCDPK1): 0.6
IC50 (PvCDPK1; ATP at Km, n = 2): 24 nM
IC50 ratio PbCDPK1/PfCDPK1 (PbCDPK1): 3.8
IC50 (PbCDPK1; ATP at Km, n = 2): 152 nM
IC50 (PfCDPK1 [3]; [7]): 40 nM

CC(C)CNc1ncc(-c2cnc3ccc(NC4CCC(N)CC4)nn23)cn1 (centres unmarked) [Compound 29]
IC50 ratio PvCDPK1/PfCDPK1 (PvCDPK1): 0.9
IC50 (PvCDPK1; ATP at Km, n = 2): 80 nM
IC50 ratio PbCDPK1/PfCDPK1 (PbCDPK1): 4.6
IC50 (PbCDPK1; ATP at Km, n = 2): 392 nM
IC50 (PfCDPK1 [3]; [7]): 86 nM

c1nc(NCC2CC2)ncc1-c1cnc2ccc(NC3CCNCC3)nn12 [Compound 40]
IC50 ratio PvCDPK1/PfCDPK1 (PvCDPK1): 0.9
IC50 (PvCDPK1; ATP at Km, n = 2): 48 nM
IC50 ratio PbCDPK1/PfCDPK1 (PbCDPK1): 4.8
IC50 (PbCDPK1; ATP at Km, n = 2): 249 nM
IC50 (PfCDPK1 [3]; [7]): 52 nM

CC(C)CCNc1ccc(-c2cnn3ccc(NC4CCN(C)C4)nc23)cn1 (centres unmarked) [Compound 41]
IC50 ratio PvCDPK1/PfCDPK1 (PvCDPK1): 0.9
IC50 (PvCDPK1; ATP at Km, n = 2): 68 nM
IC50 ratio PbCDPK1/PfCDPK1 (PbCDPK1): 2.8
IC50 (PbCDPK1; ATP at Km, n = 2): 206 nM
IC50 (PfCDPK1 [3]; [7]): 73 nM

CC(C)CCNc1ncc(-c2cnn3ccc(NC4CCN(C)C4)nc23)cn1 (centres unmarked) [Compound 42]
IC50 ratio PvCDPK1/PfCDPK1 (PvCDPK1): 0.9
IC50 (PvCDPK1; ATP at Km, n = 2): 99 nM
IC50 ratio PbCDPK1/PfCDPK1 (PbCDPK1): 3.2
IC50 (PbCDPK1; ATP at Km, n = 2): 350 nM
IC50 (PfCDPK1 [3]; [7]): 109 nM

c1ccc(-n2cc(-c3cnc4ccc(NC5CCNCC5)nn34)cn2)cc1 [Compound 44]
IC50 ratio PvCDPK1/PfCDPK1 (PvCDPK1): 0.6
IC50 (PvCDPK1; ATP at Km, n = 2): 59 nM
IC50 ratio PbCDPK1/PfCDPK1 (PbCDPK1): 4.3
IC50 (PbCDPK1; ATP at Km, n = 2): 463 nM
IC50 (PfCDPK1 [3]; [7]): 107 nM

CN(C)C1CCN(c2ccc3ncc(-c4cnc(Nc5ncccc5F)nc4)n3n2)C1 (centres unmarked) [Compound 45]
IC50 ratio PvCDPK1/PfCDPK1 (PvCDPK1): 1.0
IC50 (PvCDPK1; ATP at Km, n = 2): 19 nM
IC50 ratio PbCDPK1/PfCDPK1 (PbCDPK1): 3.0
IC50 (PbCDPK1; ATP at Km, n = 2): 58 nM
IC50 (PfCDPK1 [3]; [7]): 19 nM

Fc1cccnc1Nc1ncc(-c2cnc3ccc(NC4CCC(N5CCNCC5)CC4)nn23)cn1 (centres unmarked) [Compound 46]
IC50 ratio PvCDPK1/PfCDPK1 (PvCDPK1): 0.8
IC50 (PvCDPK1; ATP at Km, n = 2): 11 nM
IC50 ratio PbCDPK1/PfCDPK1 (PbCDPK1): 2.8
IC50 (PbCDPK1; ATP at Km, n = 2): 38 nM
IC50 (PfCDPK1 [3]; [7]): 13 nM

O=C(NCc1ccccc1)c1ccc(-c2cnc3ccc(NCCc4cccnc4)nn23)cc1 [Compound 47]
IC50 (PfCDPK1 [2]): 27 nM
IC50 ratio (ATP depletion/radiometric assay) (PfCDPK1 [4]): 3.9
IC50 (PfCDPK1 [4]): 7 nM

c1cncc(CCNc2ccc3ncc(-c4ccc5c(c4)OCO5)n3n2)c1 [Compound 50]
IC50 (PfCDPK1 [2]): 41 nM
IC50 ratio (ATP depletion/radiometric assay) (PfCDPK1 [4]): 4.1
IC50 (PfCDPK1 [4]): 10 nM

CCc1nc(N)nc(N)c1-c1ccc(Cl)cc1 [Pyrimethamine, reference compound]
EC50 (P. falciparum 3D7): 8 nM

C[C@@H]1CC[C@H]2[C@@H](C)C(=O)O[C@@H]3O[C@@]4(C)CC[C@@H]1[C@]32OO4 [artemisinin, reference compound]
EC50 (P. falciparum 3D7): 13 nM
